Target: T1, angiotensin-converting enzyme (ACE) (Rattus norvegicus, UniProt P47820)
T1 construct: enzyme solution prepared from rat lung; from tissue; host or cells: rat lung
T1 sequence (P47820 36-1313): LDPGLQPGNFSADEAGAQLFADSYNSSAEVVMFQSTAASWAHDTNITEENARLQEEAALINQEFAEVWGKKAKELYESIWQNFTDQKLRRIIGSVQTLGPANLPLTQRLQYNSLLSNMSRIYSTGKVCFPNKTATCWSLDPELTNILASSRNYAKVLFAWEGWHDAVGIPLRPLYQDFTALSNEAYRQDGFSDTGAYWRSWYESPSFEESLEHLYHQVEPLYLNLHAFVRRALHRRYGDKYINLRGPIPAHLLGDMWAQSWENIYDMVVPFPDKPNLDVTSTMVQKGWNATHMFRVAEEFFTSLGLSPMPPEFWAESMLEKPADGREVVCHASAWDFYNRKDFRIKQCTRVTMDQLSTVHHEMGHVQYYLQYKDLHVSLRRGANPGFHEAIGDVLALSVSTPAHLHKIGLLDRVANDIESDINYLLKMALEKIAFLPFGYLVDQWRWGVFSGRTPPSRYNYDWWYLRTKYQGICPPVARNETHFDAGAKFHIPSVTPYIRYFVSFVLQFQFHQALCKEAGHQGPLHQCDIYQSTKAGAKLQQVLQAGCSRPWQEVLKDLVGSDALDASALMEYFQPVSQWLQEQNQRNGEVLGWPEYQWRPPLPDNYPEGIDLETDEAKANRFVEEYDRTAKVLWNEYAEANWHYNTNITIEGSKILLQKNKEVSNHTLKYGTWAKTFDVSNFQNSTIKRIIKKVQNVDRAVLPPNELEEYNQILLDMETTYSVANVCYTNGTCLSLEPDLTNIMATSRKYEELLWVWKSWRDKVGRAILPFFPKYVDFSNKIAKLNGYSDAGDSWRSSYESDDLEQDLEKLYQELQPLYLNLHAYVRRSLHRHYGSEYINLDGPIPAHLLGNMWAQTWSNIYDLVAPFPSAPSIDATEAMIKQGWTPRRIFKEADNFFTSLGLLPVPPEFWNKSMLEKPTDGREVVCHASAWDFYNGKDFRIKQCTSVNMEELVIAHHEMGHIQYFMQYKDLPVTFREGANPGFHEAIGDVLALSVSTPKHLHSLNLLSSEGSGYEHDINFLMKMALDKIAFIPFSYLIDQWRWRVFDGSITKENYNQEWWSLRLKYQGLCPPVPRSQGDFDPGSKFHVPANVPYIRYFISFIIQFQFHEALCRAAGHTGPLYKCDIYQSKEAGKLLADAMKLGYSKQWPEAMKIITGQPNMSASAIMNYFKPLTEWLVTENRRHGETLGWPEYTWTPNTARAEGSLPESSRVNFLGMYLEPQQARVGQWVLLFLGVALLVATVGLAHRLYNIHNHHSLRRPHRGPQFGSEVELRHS
Test: Inhibitory activity against angiotensin-converting enzyme (ACE)
Assay type: biochemical
Conditions: enzyme solution from rat lung; substrate hippuryl-histidyl-leucine; phosphate buffer pH 8.3, 37° C., HPLC of hippuric acid; samples all used in the form of dicarboxylic acid
Description: Inhibitory activity against angiotensin-converting enzyme (ACE)
A […] of the compound of the present invention was dissolved in 50 ml of a phosphate buffer (pH 8.3). The solution was diluted with the same phosphate buffer as above to prepare a sample solution.
A 100 μl quantity of an enzyme solution prepared from rat lung was mixed with 100 μl of the sample solution. The mixture was gently shaken at 37° C. for 10 minutes. To the mixture was added 100 μl of a solution containing 6.99 mM of hippuryl-histidyl-leucine (product of Peptide Institute, Inc., Japan) as a substrate. The resulting mixture was incubated at 37° C. for 10 minutes. The reaction was terminated by addition of 100 μl of a 10% metaphosphoric acid to the reaction mixture and the mixture was neutralized with 1N-sodium hydroxide. A 10 μl quantity of the resulting mixture was subjected to high performance liquid chromatography (HPLC) for analysis. The area valve (S) of the hippuric acid formed by the reaction was measured. A control area valve (R) was measured by repeating the same procedure as above except that 100 μl of phosphate buffer (pH 8.3) was used in place of the sample solution.
A percent inhibition was calculated by the following equation: [formula] […]

Compound: CCCCOCCSC[C@H](NC(C)C(=O)N1CCC[C@H]1C(=O)O)C(=O)O (single isomer, unassigned) [Example 22]
- IC50: 0.114 nM

— patent US4977179A, “Proline derivatives” (Otsuka Pharmaceutical Factory, Inc., priority 1986, dated 1990)
